Activity calls are given as the source filed them. The rule behind the calls is not given here.
What was measured:
[1] = molecular target: T1, Class 1 histone deacetylase (Homo sapiens, UniProt Q13547+O15379+Q92769+Q9BY41); settings: CAL-27
Description: Inhibition of class 1 HDAC in human CAL27 cells assessed as potentiation of cisplatin-induced cytotoxicity by measuring combination index at 0.1 uM in presence of 10 uM cisplatin by MTT assay based Chou-Talalay analysis

[2] = molecular target: T1, Class 1 histone deacetylase; settings: CAL-27; remark: listed apart in the source
Description: Inhibition of class 1 HDAC in human CAL27 cells assessed as potentiation of cisplatin-induced cytotoxicity by measuring combination index at 0.25 uM in presence of 0.1 uM cisplatin by MTT assay based Chou-Talalay analysis

[3] = system: CAL-27; assay: Induction of apoptosis in human CAL27 cells assessed as accumulation at sub-G1 phase at 100 uM measured after 48 hrs by propidium iodide staining based flow cytometry relative to control; type: functional
[4] = molecular target: T1, Class 1 histone deacetylase; type: cell-based; settings: cal-27
[5] = molecular target: T1, Class 1 histone deacetylase; settings: CAL-27; remark: listed apart in the source
Description: Inhibition of class 1 HDAC in human CAL27 cells assessed as potentiation of cisplatin-induced cytotoxicity by measuring combination index at 0.25 uM in presence of 3.2 uM cisplatin by MTT assay based Chou-Talalay analysis

[6] = molecular target: T1, Class 1 histone deacetylase
Description: Inhibition of class 1 HDAC in human Cal27CisR cells assessed as potentiation of cisplatin-induced cytotoxicity by measuring combination index at 0.25 uM in presence of 100 uM cisplatin by MTT assay based Chou-Talalay analysis

[7] = system: CAL-27; assay: Potency index, ratio of vorinostat IC50 to test compound IC50 for cytotoxicity against human CAL27 cells; type: functional
[8] = Induction of apoptosis in human Cal27CisR cells assessed as accumulation at sub-G1 phase at 0.5 uM after 48 hrs by propidium iodide staining based flow cytometry relative to control; type: functional
[9] = molecular target: T1, Class 1 histone deacetylase; assay: Inhibition of class 1 HDAC in human CAL27 cells assessed as potentiation of cisplatin-induced cytotoxicity by measuring cisplatin IC50 at 5 uM preincubated for 48 hrs followed by cisplatin addition and measured after 72 hrs by MTT assay (reference value: 9.79 uM); type: cell-based; settings: cal-27
[10] = molecular target: T1, Class 1 histone deacetylase; assay: Inhibition of class 1 HDAC in human CAL27 cells assessed as potentiation of cisplatin-induced cytotoxicity by measuring combination index at 5 uM in presence of 10 uM cisplatin by MTT assay based Chou-Talalay analysis; type: cell-based; settings: CAL-27
[11] = molecular target: T1, Class 1 histone deacetylase; assay: Inhibition of class 1 HDAC in human CAL27 cells assessed as potentiation of cisplatin-induced cytotoxicity by measuring combination index at 5 uM in presence of 0.1 uM cisplatin by MTT assay based Chou-Talalay analysis; type: cell-based; settings: CAL-27
[12] = molecular target: T1, Class 1 histone deacetylase; assay: (§1) Inhibition of class 1 HDAC in human Cal27CisR cells assessed as potentiation of cisplatin-induced apoptosis assessed as increase in caspase-3/7 activation at 5 uM preincubated for 48 hrs followed by cisplatin addition and measured after 24 hrs in presence of pan caspase inhibitor QVD by CellEvent caspase 3/7 green detection reagent/Hoechst 33342 staining based imaging analysis; type: cell-based
[13] = molecular target: T1, Class 1 histone deacetylase; assay: Inhibition of class 1 HDAC in human CAL27 cells assessed as potentiation of cisplatin-induced cytotoxicity by measuring combination index at 5 uM in presence of 1 uM cisplatin by MTT assay based Chou-Talalay analysis; type: cell-based; settings: CAL-27
[14] = molecular target: T1, Class 1 histone deacetylase; assay: Inhibition of class 1 HDAC in human Cal27CisR cells assessed as potentiation of cisplatin-induced cytotoxicity by measuring cisplatin IC50 at 5 uM preincubated for 48 hrs followed by cisplatin addition and measured after 72 hrs by MTT assay (reference value: 63.2 uM); type: cell-based
[15] = molecular target: T1, Class 1 histone deacetylase; assay: as §1, with “5 uM” left out, “hrs” for “hrs in presence of pan caspase inhibitor QVD”; type: cell-based
[16] = molecular target: T2, Protein deacetylase HDAC6 (Homo sapiens) (UniProt Q9UBN7); assay: Inhibition of HDAC6 in human CAL27 cells assessed as acetylation of alpha-tubulin at […] measured after 24 hrs by immunoblot analysis; type: cell-based
T2 sequence (whole entry): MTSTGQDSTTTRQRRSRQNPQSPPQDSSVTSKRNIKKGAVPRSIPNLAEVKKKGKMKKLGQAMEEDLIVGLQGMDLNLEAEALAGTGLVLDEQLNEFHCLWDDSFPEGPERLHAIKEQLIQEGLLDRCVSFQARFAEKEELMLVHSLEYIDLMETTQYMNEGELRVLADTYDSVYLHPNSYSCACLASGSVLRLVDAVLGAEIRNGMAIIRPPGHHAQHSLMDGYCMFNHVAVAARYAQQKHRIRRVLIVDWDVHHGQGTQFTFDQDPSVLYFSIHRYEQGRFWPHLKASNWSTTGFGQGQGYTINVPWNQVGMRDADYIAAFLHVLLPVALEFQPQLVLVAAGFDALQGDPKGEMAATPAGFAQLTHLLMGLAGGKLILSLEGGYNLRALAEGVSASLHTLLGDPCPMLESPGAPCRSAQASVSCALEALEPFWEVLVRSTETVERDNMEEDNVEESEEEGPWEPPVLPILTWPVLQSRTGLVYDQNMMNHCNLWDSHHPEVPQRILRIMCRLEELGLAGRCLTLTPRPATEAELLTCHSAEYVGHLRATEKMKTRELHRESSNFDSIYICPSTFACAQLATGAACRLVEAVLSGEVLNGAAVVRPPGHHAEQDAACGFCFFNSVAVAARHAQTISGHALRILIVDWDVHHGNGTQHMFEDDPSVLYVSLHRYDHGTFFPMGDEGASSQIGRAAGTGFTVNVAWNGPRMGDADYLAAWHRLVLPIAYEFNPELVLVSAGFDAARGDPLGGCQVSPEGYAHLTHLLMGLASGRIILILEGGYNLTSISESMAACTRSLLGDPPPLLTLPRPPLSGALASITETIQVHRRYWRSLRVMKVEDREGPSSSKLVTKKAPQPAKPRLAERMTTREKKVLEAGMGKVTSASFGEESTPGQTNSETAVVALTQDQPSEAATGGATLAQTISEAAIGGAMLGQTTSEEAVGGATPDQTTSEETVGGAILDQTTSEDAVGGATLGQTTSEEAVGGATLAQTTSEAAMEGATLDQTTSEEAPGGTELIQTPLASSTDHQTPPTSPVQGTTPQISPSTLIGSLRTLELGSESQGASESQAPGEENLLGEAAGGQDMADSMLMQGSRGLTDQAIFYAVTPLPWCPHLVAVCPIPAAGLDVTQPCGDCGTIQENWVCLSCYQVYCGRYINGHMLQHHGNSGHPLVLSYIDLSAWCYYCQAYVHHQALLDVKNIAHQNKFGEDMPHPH

[17] = molecular target: T1, Class 1 histone deacetylase; assay: as §1, with “5 uM” left out; type: cell-based
[18] = Induction of apoptosis in human Cal27CisR cells assessed as caspase-3/7 activation at […] measured after 48 hrs by CellEvent caspase 3/7 green detection reagent/Hoechst 33342 staining based imaging analysis relative to control; type: functional
[19] = Induction of apoptosis in human Cal27CisR cells assessed as accumulation at sub-G1 phase at […] after 48 hrs by propidium iodide staining based flow cytometry relative to control; type: functional
[20] = molecular target: T1, Class 1 histone deacetylase; assay: Inhibition of class 1 HDAC in human CAL27 cells assessed as increase in histone H3 acetylation at […] measured after 24 hrs by immunoblot analysis; type: cell-based; settings: CAL-27

T1 sequence (O15379 whole entry, looked up): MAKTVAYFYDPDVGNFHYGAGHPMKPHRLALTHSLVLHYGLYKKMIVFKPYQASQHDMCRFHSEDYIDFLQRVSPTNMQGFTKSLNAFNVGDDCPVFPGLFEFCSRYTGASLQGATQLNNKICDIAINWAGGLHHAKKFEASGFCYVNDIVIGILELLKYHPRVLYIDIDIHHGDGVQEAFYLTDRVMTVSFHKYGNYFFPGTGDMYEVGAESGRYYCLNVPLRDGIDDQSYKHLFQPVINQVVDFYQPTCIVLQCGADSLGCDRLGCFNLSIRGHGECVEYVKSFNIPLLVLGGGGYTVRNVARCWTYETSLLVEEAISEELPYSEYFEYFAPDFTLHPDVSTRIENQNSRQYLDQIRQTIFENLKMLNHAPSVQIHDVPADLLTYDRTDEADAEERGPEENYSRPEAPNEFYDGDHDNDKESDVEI
T1 sequence (Q13547 whole entry, looked up): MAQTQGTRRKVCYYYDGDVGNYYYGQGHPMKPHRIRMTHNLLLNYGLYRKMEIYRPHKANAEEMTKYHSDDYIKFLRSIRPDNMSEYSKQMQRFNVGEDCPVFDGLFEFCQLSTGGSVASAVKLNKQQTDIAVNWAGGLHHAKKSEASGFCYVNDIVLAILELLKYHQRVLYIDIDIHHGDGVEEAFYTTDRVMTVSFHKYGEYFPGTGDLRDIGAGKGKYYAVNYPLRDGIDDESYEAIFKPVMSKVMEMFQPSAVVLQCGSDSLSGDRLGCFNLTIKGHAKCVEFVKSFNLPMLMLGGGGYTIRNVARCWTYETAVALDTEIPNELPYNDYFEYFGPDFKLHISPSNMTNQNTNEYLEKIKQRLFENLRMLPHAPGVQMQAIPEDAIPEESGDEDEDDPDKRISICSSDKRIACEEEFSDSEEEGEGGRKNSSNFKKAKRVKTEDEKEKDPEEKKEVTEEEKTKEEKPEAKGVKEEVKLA
T1 sequence (Q92769 whole entry, looked up): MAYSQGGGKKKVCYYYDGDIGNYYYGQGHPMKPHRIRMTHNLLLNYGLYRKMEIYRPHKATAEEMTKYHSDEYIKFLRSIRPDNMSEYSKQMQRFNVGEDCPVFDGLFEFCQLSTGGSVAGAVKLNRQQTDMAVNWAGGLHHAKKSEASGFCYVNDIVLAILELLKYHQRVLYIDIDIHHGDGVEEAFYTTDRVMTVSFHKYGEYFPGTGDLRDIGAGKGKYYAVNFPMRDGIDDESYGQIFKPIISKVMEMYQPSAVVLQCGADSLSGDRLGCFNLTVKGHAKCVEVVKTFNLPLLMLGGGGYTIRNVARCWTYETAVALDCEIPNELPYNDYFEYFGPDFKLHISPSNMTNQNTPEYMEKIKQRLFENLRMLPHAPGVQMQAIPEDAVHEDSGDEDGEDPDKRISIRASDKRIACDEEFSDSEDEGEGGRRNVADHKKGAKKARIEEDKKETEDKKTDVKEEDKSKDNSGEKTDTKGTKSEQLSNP
T1 sequence (Q9BY41 whole entry, looked up): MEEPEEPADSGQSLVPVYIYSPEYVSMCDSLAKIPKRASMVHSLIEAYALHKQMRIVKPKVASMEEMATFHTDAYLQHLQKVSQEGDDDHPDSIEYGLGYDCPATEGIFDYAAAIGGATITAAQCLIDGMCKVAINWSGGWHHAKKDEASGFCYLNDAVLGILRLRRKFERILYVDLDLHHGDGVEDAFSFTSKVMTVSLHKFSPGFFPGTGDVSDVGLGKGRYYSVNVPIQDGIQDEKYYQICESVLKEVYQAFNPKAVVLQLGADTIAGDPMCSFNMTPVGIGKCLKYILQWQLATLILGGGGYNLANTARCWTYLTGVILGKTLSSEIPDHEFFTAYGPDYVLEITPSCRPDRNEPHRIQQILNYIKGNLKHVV

## CN(C)c1ccc(C(=O)N(CC(=O)NCc2ccccc2)Cc2ccc(C(=O)Nc3ccccc3N)cc2)cc1
[1]
  CI: 0.33
[2]
  CI: 0.56
[3]
  Activity: 31%
[4]
  IC50: 1260 nM
[5]
  CI: 0.07
[6]
  CI: 0.03
[7]
  Ratio IC50: 1.7
[8]
  Activity: 6.15%

## Cc1cc(C)cc(C(=O)N(CCCCCC(=O)Nc2cc(-c3ccccc3)ccc2N)CC(=O)NCc2ccccc2)c1
[9]
  IC50: 1860 nM
[10]
  CI: 0.09
[11]
  CI: < 0.2
[12]
  inhibition: inactive
[13]
  CI: 0.76
[14]
  IC50: 15700 nM

## Cc1cc(C)cc(C(=O)N(CC(=O)NCc2ccccc2)Cc2ccc(C(=O)Nc3cc(-c4ccccc4)ccc3N)cc2)c1
[15]
  inhibition: Active
[16]
  inhibition: inactive
[17]
  inhibition: inactive
[18]
  Activity: 5.96%
[19]
  Activity: 7.45%
[20]
  inhibition: Active
